Data published in PubChem BioAssay (NCI).
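Method: 48-hour compound exposure of cells in 96-well plates, five concentrations, linear interpolation of endpoints. GI50: concentration for 50% inhibition of growth. At the TGI there is no net growth.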 Activity calls are given as the source filed them. Rule as the data show it: active = GI50 below about 0.43 µM; inactive = the rest.

Tests used:
Assay in all cases: NCI tumour cell line growth inhibition, 48 h
MOLT-4 leukemia = system: MOLT-4 leukemia
OVCAR-8 ovarian = system: OVCAR-8 ovarian
PC-3 prostate = system: PC-3 prostate
SF-268 CNS = system: SF-268 CNS
SF-539 CNS = system: SF-539 CNS
SK-MEL-2 melanoma = system: SK-MEL-2 melanoma
SN12C renal = system: SN12C renal
SW-620 colon = system: SW-620 colon
T-47D breast = system: T-47D breast

CS(=O)(=O)c1ccc(-n2nc(C(F)(F)F)cc2OC2CCCC2)cc1
GI50 (MOLT-4 leukemia): 35.9 µM
TGI (MOLT-4 leukemia): > 100 µM
GI50 (OVCAR-8 ovarian): 43.8 µM
TGI (OVCAR-8 ovarian): > 100 µM
GI50 (PC-3 prostate): 27.7 µM
TGI (PC-3 prostate): > 100 µM
GI50 (SF-268 CNS): 36.1 µM
TGI (SF-268 CNS): > 100 µM
GI50 (SF-539 CNS): 39.8 µM
TGI (SF-539 CNS): > 100 µM
GI50 (SK-MEL-2 melanoma): > 100 µM
TGI (SK-MEL-2 melanoma): > 100 µM
GI50 (SN12C renal): 25.8 µM
TGI (SN12C renal): 71.7 µM
GI50 (SW-620 colon): 71.2 µM
TGI (SW-620 colon): > 100 µM
GI50 (T-47D breast): 33 µM
TGI (T-47D breast): > 100 µM

NC(=O)NS(=O)(=O)c1ccc(N2N=C(C(F)(F)F)CC2c2cc(C(F)(F)F)cc(C(F)(F)F)c2)cc1 (stereo not given)
GI50 (MOLT-4 leukemia): 4.73 µM
TGI (MOLT-4 leukemia): 55.5 µM
GI50 (OVCAR-8 ovarian): 4.78 µM
TGI (OVCAR-8 ovarian): 20 µM
GI50 (PC-3 prostate): 2.35 µM
TGI (PC-3 prostate): 12.2 µM
GI50 (SF-268 CNS): 2.96 µM
TGI (SF-268 CNS): 12.3 µM
GI50 (SF-539 CNS): 11.9 µM
TGI (SF-539 CNS): 24.7 µM
GI50 (SK-MEL-2 melanoma): 1.2 µM
TGI (SK-MEL-2 melanoma): 9.5 µM
GI50 (SN12C renal): 2.1 µM
TGI (SN12C renal): 4.51 µM
GI50 (SW-620 colon): 4.1 µM
TGI (SW-620 colon): 15.7 µM
GI50 (T-47D breast): 3.73 µM
TGI (T-47D breast): 17.2 µM

COc1ccc(C(=O)C#Cc2cnc(OC)nc2OC)cc1
GI50 (MOLT-4 leukemia): 17900 µM
GI50 (OVCAR-8 ovarian): 32300 µM
TGI (OVCAR-8 ovarian): 3.4 µM
GI50 (PC-3 prostate): 27800 µM
TGI (PC-3 prostate): 2.58 µM
TGI (SF-268 CNS): 7.41 µM
outcome (SF-268 CNS): inactive
GI50 (SK-MEL-2 melanoma): 36100 µM
TGI (SN12C renal): 2.63 µM
GI50 (SW-620 colon): 25200 µM
TGI (T-47D breast): 61400 µM

N#CC(C#N)=C1Nc2ccccc2S1
GI50 (MOLT-4 leukemia): 33.3 µM
TGI (MOLT-4 leukemia): > 100 µM
GI50 (OVCAR-8 ovarian): 35.4 µM
TGI (OVCAR-8 ovarian): > 100 µM
GI50 (PC-3 prostate): 40.1 µM
TGI (PC-3 prostate): > 100 µM
GI50 (SF-268 CNS): 27.8 µM
TGI (SF-268 CNS): > 100 µM
GI50 (SF-539 CNS): 36.3 µM
TGI (SF-539 CNS): 93.7 µM
GI50 (SK-MEL-2 melanoma): 28.5 µM
TGI (SK-MEL-2 melanoma): 56.2 µM
GI50 (SN12C renal): 38.2 µM
TGI (SN12C renal): > 100 µM
GI50 (SW-620 colon): 40.1 µM
TGI (SW-620 colon): > 100 µM
GI50 (T-47D breast): 35.8 µM
TGI (T-47D breast): > 100 µM

COc1ccc(-c2onc(N)c2-c2cc(OC)c3c(c2)OCO3)cc1
GI50 (MOLT-4 leukemia): 1.93 µM
TGI (MOLT-4 leukemia): > 65.5 µM
GI50 (OVCAR-8 ovarian): 4.22 µM
TGI (OVCAR-8 ovarian): > 100 µM
GI50 (PC-3 prostate): 4.69 µM
TGI (PC-3 prostate): > 100 µM
GI50 (SF-268 CNS): 8.58 µM
TGI (SF-268 CNS): > 100 µM
GI50 (SF-539 CNS): 2.74 µM
TGI (SF-539 CNS): 11.8 µM
GI50 (SN12C renal): 4.26 µM
TGI (SN12C renal): > 100 µM
GI50 (SW-620 colon): 0.598 µM
TGI (SW-620 colon): > 100 µM
GI50 (T-47D breast): 4.65 µM
TGI (T-47D breast): > 100 µM

O=C(O)C(=Cc1ccc(-c2ccccc2)cc1)C(=O)O
TGI (MOLT-4 leukemia): 53.6 µM
TGI (OVCAR-8 ovarian): > 92 µM
TGI (PC-3 prostate): 27.6 µM
TGI (SF-268 CNS): > 59.3 µM
TGI (SF-539 CNS): 19.3 µM
TGI (SK-MEL-2 melanoma): 16.6 µM
TGI (SN12C renal): 35.1 µM
TGI (SW-620 colon): 97.5 µM
TGI (T-47D breast): 34 µM

C#CCNC(=O)c1cccc2c1cc(C)n2-c1nc2c(c(NCc3ccccc3)n1)CCCC2
GI50 (MOLT-4 leukemia): 0.0229 µM
TGI (MOLT-4 leukemia): 0.075 µM
GI50 (OVCAR-8 ovarian): 0.0312 µM
TGI (OVCAR-8 ovarian): 0.363 µM
GI50 (PC-3 prostate): 0.024 µM
TGI (PC-3 prostate): 0.0717 µM
GI50 (SF-268 CNS): 0.0257 µM
TGI (SF-268 CNS): 0.0771 µM
GI50 (SF-539 CNS): 0.0245 µM
TGI (SF-539 CNS): 0.07 µM
GI50 (SK-MEL-2 melanoma): 0.023 µM
TGI (SK-MEL-2 melanoma): 0.0627 µM
GI50 (SN12C renal): 0.0204 µM
TGI (SN12C renal): 0.0689 µM
GI50 (SW-620 colon): 0.0289 µM
TGI (SW-620 colon): 0.142 µM
GI50 (T-47D breast): 0.0283 µM
TGI (T-47D breast): 0.117 µM

COC(=O)Nc1nc2ccc(Oc3ccc(NC(=O)Nc4cc(C(F)(F)F)ccc4F)cc3)cc2s1
GI50 (MOLT-4 leukemia): > 25 µM
TGI (MOLT-4 leukemia): > 25 µM
GI50 (OVCAR-8 ovarian): 8.67 µM
TGI (OVCAR-8 ovarian): > 25 µM
GI50 (PC-3 prostate): 11.5 µM
TGI (PC-3 prostate): > 25 µM
GI50 (SF-268 CNS): 8.5 µM
TGI (SF-268 CNS): > 25 µM
GI50 (SF-539 CNS): > 25 µM
TGI (SF-539 CNS): > 25 µM
GI50 (SK-MEL-2 melanoma): > 5.02 µM
TGI (SK-MEL-2 melanoma): > 25 µM
GI50 (SN12C renal): > 17.3 µM
TGI (SN12C renal): > 25 µM
GI50 (SW-620 colon): 9.85 µM
TGI (SW-620 colon): > 25 µM
GI50 (T-47D breast): > 18 µM
TGI (T-47D breast): > 25 µM

CC1(C)OC2=C(CC1Br)C(=O)C(=O)c1ccccc12 (stereo not given)
GI50 (MOLT-4 leukemia): 2.27 µM
TGI (MOLT-4 leukemia): 5.26 µM
GI50 (OVCAR-8 ovarian): 2.02 µM
TGI (OVCAR-8 ovarian): 3.89 µM
GI50 (PC-3 prostate): 2.13 µM
TGI (PC-3 prostate): 4.95 µM
GI50 (SF-268 CNS): 1.75 µM
TGI (SF-268 CNS): 3.32 µM
GI50 (SF-539 CNS): 1.82 µM
TGI (SF-539 CNS): 3.37 µM
GI50 (SK-MEL-2 melanoma): 1.65 µM
TGI (SK-MEL-2 melanoma): 3.57 µM
GI50 (SN12C renal): 1.84 µM
TGI (SN12C renal): 3.75 µM
GI50 (SW-620 colon): 1.91 µM
TGI (SW-620 colon): 3.49 µM
GI50 (T-47D breast): 2.03 µM
TGI (T-47D breast): 4.72 µM

O=C(O)/C=C(\c1nc2ccc([N+](=O)[O-])cc2[nH]1)c1cc(Cl)ccc1O
GI50 (MOLT-4 leukemia): 2.26 µM
TGI (MOLT-4 leukemia): 9.7 µM
GI50 (OVCAR-8 ovarian): 3.28 µM
TGI (OVCAR-8 ovarian): > 100 µM
GI50 (PC-3 prostate): 2.25 µM
TGI (PC-3 prostate): > 100 µM
GI50 (SF-268 CNS): 3.62 µM
TGI (SF-268 CNS): 28.3 µM
GI50 (SF-539 CNS): 3.1 µM
TGI (SF-539 CNS): 17.8 µM
GI50 (SK-MEL-2 melanoma): 2.4 µM
TGI (SK-MEL-2 melanoma): 7.59 µM
GI50 (SN12C renal): 2.71 µM
TGI (SN12C renal): 33.8 µM
GI50 (SW-620 colon): 3.66 µM
TGI (SW-620 colon): 17.6 µM
GI50 (T-47D breast): 2.3 µM
TGI (T-47D breast): 9.38 µM

CC(C)(CO)N1CCN(C(=S)Nc2ccccc2)CC1
TGI (OVCAR-8 ovarian): > 100 µM
TGI (PC-3 prostate): > 100 µM
TGI (SF-268 CNS): > 100 µM
TGI (SF-539 CNS): > 100 µM
TGI (SK-MEL-2 melanoma): > 100 µM
TGI (SN12C renal): > 100 µM
TGI (SW-620 colon): > 100 µM
TGI (T-47D breast): > 100 µM
